The source made the active and inactive calls. The rule behind the calls is not given here.
tested on: HL-60; assay: Induction of HL60 cell differentiation in correlation with affinity to human VDR; format: functional, cell-based

Row | Compound | Activity
1 | C=C1/C(=C\C=C2/CCC[C@]3(C)[C@@H]([C@H](C)CCCC(C)(C)O)CC[C@@H]23)C[C@@H](O)[C@H](C)[C@@H]1O | Active
2 | C=C1/C(=C\C=C2/CCC[C@]3(C)[C@@H]([C@H](C)CCCC(C)(C)O)CC[C@@H]23)C[C@@H](O)[C@H](CCCO)[C@@H]1O | Active
3 | C=C1/C(=C\C=C2/CCC[C@]3(C)[C@@H]([C@H](C)CCCC(C)(C)O)CC[C@@H]23)C[C@H](O)[C@@H](OCCC)[C@H]1O | inactive
4 | C=C1/C(=C\C=C2/CCC[C@]3(C)[C@@H]([C@H](C)CCCC(C)(C)O)CC[C@@H]23)C[C@@H](O)[C@H](CCC)[C@@H]1O | Active
5 | C=C1/C(=C\C=C2/CCC[C@]3(C)[C@@H]([C@H](C)CCCC(C)(C)O)CC[C@@H]23)C[C@@H](O)[C@H](OCCCO)[C@@H]1O | inactive

Source: ChEMBL document CHEMBL1146844, “Probing a water channel near the A-ring of receptor-bound 1 alpha,25-dihydroxyvitamin D3 with selected 2 alpha-substituted analogues” (J Med Chem, 2006)
